Experimental data taken from ChEMBL document CHEMBL1201862, “PubChem BioAssay data set” (2004).
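Method: 48-hour compound exposure of cells in 96-well plates, five concentrations, linear interpolation of endpoints. GI50 marks 50% less growth.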 The source made the active and inactive calls. No stated cut-off is given here; in the data, active = GI50 up to about 1.1 µM and inactive = higher.

Key:
Assay in all cases: inhibition of tumour cell growth, NCI panel, 48 h
SN12C = system: SN12C
SW-620 = system: SW-620
M14 = system: M14
MOLT-4 = system: MOLT-4
CAKI-1 = system: CAKI-1
COLO 205 = system: COLO 205
SR = system: SR
CCRF-CEM = system: CCRF-CEM
RPMI-8226 = system: RPMI-8226
IGROV-1 = system: IGROV-1
SNB-75 = system: SNB-75
OVCAR-8 = system: OVCAR-8
OVCAR-3 = system: OVCAR-3
UACC-257 = system: UACC-257
OVCAR-5 = system: OVCAR-5
SK-OV-3 = system: SK-OV-3
HCT-15 = system: HCT-15
NCI-H460 = system: NCI-H460
A549 = system: A549
EKVX = system: EKVX

In the case of `Nc1nc(Cl)nc2c1ncn2C1CCC(CO)O1` (configuration not stated), the GI50 (SN12C) is reported as 95.7 µM (inactive), the GI50 (SW-620) is reported as > 100 µM (inactive) and the GI50 (M14) is reported as > 100 µM (inactive). For the same molecule, the GI50 (MOLT-4) was 35.2 µM (inactive), the GI50 (CAKI-1) was > 100 µM (inactive) and the GI50 (COLO 205) was > 100 µM (inactive). For the same molecule, the GI50 (SR) was > 100 µM (inactive), the GI50 (CCRF-CEM) was 3.46 µM (inactive) and the GI50 (RPMI-8226) was > 100 µM (inactive). The GI50 (IGROV-1) was > 100 µM (inactive), the GI50 (SNB-75) was > 100 µM (inactive) and the GI50 (OVCAR-8) was 41.6 µM (inactive). For the same molecule, the GI50 (OVCAR-3) was > 100 µM (inactive), the GI50 (UACC-257) was > 100 µM (inactive) and the GI50 (OVCAR-5) was > 100 µM (inactive). The GI50 (SK-OV-3) was > 100 µM (inactive), the GI50 (HCT-15) was over 100 µM and the GI50 (NCI-H460) was > 100 µM (inactive).

For `CCCCC(=O)c1c(O)nc2sccn2c1=O`, the GI50 (SN12C) was > 10 µM (inactive), the GI50 (SW-620) was > 10 µM (inactive) and the GI50 (M14) was > 10 µM (inactive). For the same molecule, the GI50 (A549) was > 10 µM (inactive), the GI50 (MOLT-4) was > 10 µM (inactive) and the GI50 (CAKI-1) was > 10 µM (inactive). For the same molecule, the GI50 (COLO 205) was > 10 µM (inactive), the GI50 (SR) was > 10 µM (inactive) and the GI50 (CCRF-CEM) was > 10 µM (inactive). The GI50 (RPMI-8226) was > 10 µM (inactive), the GI50 (IGROV-1) was > 10 µM (inactive) and the GI50 (SNB-75) was > 10 µM (inactive). For the same molecule, the GI50 (OVCAR-8) was > 10 µM (inactive), the GI50 (OVCAR-3) was > 10 µM (inactive) and the GI50 (EKVX) was > 10 µM (inactive). For the same molecule, the GI50 (OVCAR-5) was > 10 µM (inactive), the GI50 (SK-OV-3) was > 10 µM (inactive) and the GI50 (HCT-15) was over 10 µM. The GI50 (NCI-H460) was > 10 µM (inactive).

For `Cc1cccc(C(C)C)c1NC(=O)CC1Sc2ccccc2NC1=O` (configuration not stated), the GI50 (SN12C) was > 100 µM (inactive), the GI50 (SW-620) was 76.4 µM (inactive) and the GI50 (M14) was 50.1 µM (inactive). For the same molecule, the GI50 (A549) was 87.3 µM (inactive), the GI50 (MOLT-4) was 20.5 µM (inactive) and the GI50 (CAKI-1) was > 100 µM (inactive). The GI50 (COLO 205) was > 100 µM (inactive), the GI50 (SR) was 41 µM (inactive) and the GI50 (CCRF-CEM) was > 100 µM (inactive). For the same molecule, the GI50 (RPMI-8226) was 57.4 µM (inactive), the GI50 (IGROV-1) was > 100 µM (inactive) and the GI50 (SNB-75) was 60.3 µM (inactive). The GI50 (OVCAR-8) was > 100 µM (inactive), the GI50 (OVCAR-3) was > 100 µM (inactive) and the GI50 (EKVX) was > 100 µM (inactive). The GI50 (UACC-257) was > 100 µM (inactive), the GI50 (OVCAR-5) was > 100 µM (inactive) and the GI50 (SK-OV-3) was > 100 µM (inactive). The GI50 (HCT-15) was 70.1 µM and the GI50 (NCI-H460) was > 100 µM (inactive).

For `CCCCn1/c(=N/C(=S)N(C)C)ss/c1=N\C(=S)N(C)C`, the GI50 (SN12C) was > 100 µM (inactive), the GI50 (SW-620) was > 100 µM (inactive) and the GI50 (M14) was > 100 µM (inactive). The GI50 (A549) was > 100 µM (inactive), the GI50 (MOLT-4) was > 100 µM (inactive) and the GI50 (CAKI-1) was > 100 µM (inactive). The GI50 (SR) was > 100 µM (inactive), the GI50 (CCRF-CEM) was > 100 µM (inactive) and the GI50 (RPMI-8226) was > 100 µM (inactive). The GI50 (IGROV-1) was > 100 µM (inactive), the GI50 (SNB-75) was > 100 µM (inactive) and the GI50 (OVCAR-8) was > 100 µM (inactive). The GI50 (EKVX) was > 100 µM (inactive), the GI50 (UACC-257) was > 100 µM (inactive) and the GI50 (OVCAR-5) was > 100 µM (inactive). The GI50 (SK-OV-3) was > 100 µM (inactive), the GI50 (HCT-15) was over 100 µM and the GI50 (NCI-H460) was > 100 µM (inactive).

For `Cc1ccc2c(c1)C(=O)N(N(C)C)CC(=O)N2`, the GI50 (SW-620) was > 100 µM (inactive), the GI50 (M14) was > 100 µM (inactive) and the GI50 (A549) was > 100 µM (inactive). The GI50 (MOLT-4) was > 100 µM (inactive), the GI50 (CAKI-1) was > 100 µM (inactive) and the GI50 (COLO 205) was > 100 µM (inactive). The GI50 (SR) was > 100 µM (inactive), the GI50 (CCRF-CEM) was > 100 µM (inactive) and the GI50 (RPMI-8226) was > 100 µM (inactive). The GI50 (IGROV-1) was > 100 µM (inactive), the GI50 (SNB-75) was 35.2 µM (inactive) and the GI50 (OVCAR-8) was > 100 µM (inactive). The GI50 (OVCAR-3) was > 100 µM (inactive), the GI50 (EKVX) was > 100 µM (inactive) and the GI50 (UACC-257) was > 100 µM (inactive). For the same molecule, the GI50 (OVCAR-5) was > 100 µM (inactive), the GI50 (SK-OV-3) was > 100 µM (inactive) and the GI50 (HCT-15) was over 100 µM. The GI50 (NCI-H460) was > 100 µM (inactive).

With `CC(C)(C)[Si](C)(C)OCC1OC(n2cnc3c(N)ncnc32)CC1O` (configuration not stated) the GI50 (SN12C) was > 100 µM (inactive), the GI50 (SW-620) was > 100 µM (inactive) and the GI50 (M14) was 44.2 µM (inactive). The GI50 (MOLT-4) was 16.1 µM (inactive), the GI50 (CAKI-1) was 86.9 µM (inactive) and the GI50 (COLO 205) was 91.6 µM (inactive). For the same molecule, the GI50 (SR) was 34.8 µM (inactive), the GI50 (CCRF-CEM) was 22.6 µM (inactive) and the GI50 (RPMI-8226) was 52.8 µM (inactive). For the same molecule, the GI50 (IGROV-1) was 76.6 µM (inactive), the GI50 (SNB-75) was > 100 µM (inactive) and the GI50 (OVCAR-8) was 87.9 µM (inactive). The GI50 (OVCAR-3) was 51.2 µM (inactive), the GI50 (UACC-257) was > 100 µM (inactive) and the GI50 (OVCAR-5) was 60.8 µM (inactive). For the same molecule, the GI50 (SK-OV-3) was 81.5 µM (inactive), the GI50 (HCT-15) was 81.8 µM and the GI50 (NCI-H460) was 97.5 µM (inactive).
